# Data reported in PubChem BioAssay AID743267 (Broad Institute, 2014).
# Test system: human bronchial epithelial cells, CFTR corrector, plate reader
# Test: CFTR ΔF508 corrector activity in bronchial cells, dose response, human bronchial epithelial cells, plate reader, cherry-pick, two tests (AID 743267)
# Conditions: measured here: test 1 replicate run
row,SMILES,AC50
1,COC(=O)C[C@@H]1CC[C@@H]2[C@H](COc3ccc(NC(=O)c4ccc(C(F)(F)F)cc4)cc3C(=O)N2C)O1,19.2 µM
2,CN1C(=O)c2cc(NC(=O)c3ccc(Cl)cc3)ccc2OC[C@@H]2O[C@H](CC(=O)NCc3cccc(F)c3)CC[C@H]21,4.62 µM
3,C[C@@H]1CN([C@@H](C)CO)C(=O)Cc2cc(N(C)C)ccc2O[C@@H]1CN(C)Cc1ccc(C(=O)Nc2ccccc2N)cc1,10.3 µM

# Same assay, conditions: measured here: test 2 replicate run
row,SMILES,AC50
1,CCCCNC(=O)C(=O)Nc1ccc2c(c1)N(S(=O)(=O)c1cccs1)CCC2,1.89 µM
2,Nc1nc(Cl)nc2c1ncn2C1CC(O)C(CO)O1 (stereo unspecified),2.73 µM
3,CCc1ccc(N2CC(C(=O)Nc3ccccc3N3CCCC3)CC2=O)cc1 (stereo unspecified),28.7 µM
4,O=C(NCCOc1ccccc1)c1cc([N+](=O)[O-])ccc1N1CCOCC1,2.66 µM
5,Cc1ccc(S(=O)(=O)N2CCOCC2)cc1NC(=O)CSc1n[nH]c(N)n1,> 50 µM
6,COc1ccccc1C(=O)NC(=S)/C=C1/N(C)c2ccccc2C1(C)C,> 50 µM
7,C=CCN1C(=O)/C(=C/C=C2/N(CC)c3ccc(S(=O)(=O)N(C)C)cc3N2CC)SC1=S,3.35 µM
8,O=C1C=CN(C2OC(CO)C(O)C2O)C(=O)C1 (stereo unspecified),> 50 µM
9,CC(=O)O[C@H]1C(=O)[C@]2(C)[C@H]([C@H](OC(=O)c3ccccc3)[C@]3(O)C[C@H](OC(=O)[C@H](O)[C@@H](NC(=O)c4ccccc4)c4ccccc4)C(C)=C1C3(C)C)[C@]1(OC(C)=O)CO[C@@H]1C[C@@H]2O,0.339 µM
10,COc1cccc2c1C(=O)c1c(O)c3c(c(O)c1C2=O)C[C@@](O)(C(C)=O)C[C@@H]3O[C@H]1C[C@H](N)[C@H](O)[C@H](C)O1,7.44 µM
11,N#C/C(=C\c1ccccn1)c1nc2ccccc2s1,24.2 µM
12,O=C(N/N=C/c1cccs1)c1cc(C2CC2)nc2ccccc12,6.27 µM
13,O=C(N=Nc1c(O)[nH]c2ccc(Br)cc12)c1ccccc1-n1cccc1,2.33 µM
14,Fc1ccc(/C=N/NC(=S)Nc2ccc(Cl)cc2Cl)cc1,32.2 µM
15,COc1cc(Nc2c3c(nc4ccccc24)CCC3)cc(OC)c1OC,1.97 µM
16,Brc1ccc2c(c1)C(C1=NCCN1)c1ccccc1CS2 (stereo unspecified),16 µM
17,COc1ccc(OC)c(/C(C)=N\NC(=O)c2cc3cc(Cl)ccc3n2C)c1,8.3 µM
18,CCN(CC)c1ccc(/C=N/NC(=O)c2cnccn2)c(O)c1,2.2 µM
